# Assay results as given in patent US6649654B1, “Methods for identifying and using IKK inhibitors” (The Regents of the University of California, priority 1999, dated 2003).
# Key:
# IKK [1] = biological target: T1, IKK (Homo sapiens, UniProt O14920+O15111); experiment: Endogenous IKK activity (kinase assay) in treated, stimulated HeLa cells; type: cell-based; set-up: Endogenous IKK was immunoprecipitated from TNFα-stimulated HeLa cells; endogenous in cells; host or cells: HeLa; settings: HeLa cells, 50 μM (LTB4 1 μM, 15dPGJ2 5 μM) 2 hours, TNFα 10 minutes
# Description: (§1) Cells used in the experiments described herein were cultured in either RPMI 1640 (Jurkat cells) or DMEM (HeLa and COS cells), supplemented with 10% FBS and antibiotics. Cells were stimulated with either 25 ng/ml TPA, 20 ng/ml recombinant TNFα, or 10 ng/ml interleukin 1β (Sigma). PGA1, 15dPGJ2, T×B2, LTB4, AA and other PGs (Cayman) dissolved in ethanol were used as well, as known in the art (See e.g., Rossi et al., 94:746-750 [1997]). Controls received equal amounts of ethanol. Transfections were performed using Lipofectamine Plus (GIBCO) for HeLa and COS cells and DEAE-dextran (Sigma) for Jurkat cells. Xpress-tagged NIK, Xpress-tagged MEKK1, HA-tagged IKKα, and HA-tagged IKKβ were also used (See e.g., Zandi et al., Science 281:1360-1363 [1998]; and Delhase et al., Science 284:309-313 [1999]). COX2 and cPLA2 expression vectors were obtained from Dr. L. Feng (See also, Hirose et al., J. Am. Soc. Nephrol., 9:408-416 [1998]). PGD synthase was cloned from HT29 colon carcinoma cell line cDNA by PCR and subcloned into a pCDNA3 vector. Cells were lysed in buffer B (50 mM Tris-HCl, pH 7.5, 400 mM NaCl, 1 mM EDTA, 1 mM EGTA, 1% Triton, 0.5% NP-40, 10% glycerol, and supplemented with 20 mM β-glycerophosphate, 10 mM PNPP, […] 1 mM PMSF, 20 μg/ml aprotinin, 2.5 μg/ml leupeptin, 8.3 μg/ml bestatin, 1.7 μg/ml pepstatin, and 2 mM DTT).
# (§2) Cell lysates were incubated with anti-IKKα (Pharmingen), anti-HA (12CA5; Pharmingen), anti-JNK1 (333.8; Pharmingen), or anti-p38 (New England Biolabs) for 2 hours. Then, 15 μl protein A-Sepharose (Sigma) were added and the mixture was allowed to incubate for 1 hour. After extensive washing, kinase assays were performed as known in the art (See e.g., DiDonato et al., Nature 388:548-554 [1997]). Endogenous IKK, HA-tagged IKKα, endogenous JNK1, and p38 activities were determined with GST-1κBα(1-54), GST-c-Jun(1-79), and GST-ATF2 as substrates.
# (§3) In this Example, experiments to determined the effects of arachidonic acid and its metabolites on IKK activity in vivo and in vitro are described. HeLa cells were treated with 50 μM AA, PGA1, PGB2, PGD2, PGE1, PGE2, PGF1α, or thromboxane B2 (T×B2), 1 μM LTB4, or 5 μM 15dPGJ2, for 2 hours in RPMI containing 10% FCS, and stimulated with TNFα for 10 minutes. Cell lysates were then assayed for endogenous IKK activity and recovery. In this FIGURE, “control” indicates unstimulated cells, and “-” indicates treatment with diluent alone. In addition, IKK was immunoprecipitated from TNFα-stimulated HeLA cells and incubated in vitro with 100 μM AA, PGA1, PGB2, PGD2, PGE1, PGE2, PGF1α, or T×B2, 2 μM LTB4 or 10 μM 15dPGJ2, followed by kinase assay and immunoblot analysis. In this FIGURE, “control” indicates to unstimulated cells, and “-”indicates 1% ethanol.
# IKK [2] = biological target: T1, IKK; experiment: In vitro kinase assay of IKK immunoprecipitated from TNFα-stimulated HeLa cells; type: biochemical; set-up: Endogenous IKK was immunoprecipitated from TNFα-stimulated HeLa cells; endogenous in cells; host or cells: HeLa; settings: immunoprecipitated IKK, 100 μM (LTB4 2 μM, 15dPGJ2 10 μM)
# Description: as §2
# Endogenous IKK was immunoprecipitated from TNFα-stimulated HeLa cells and the kinase activity determined in the presence of different concentrations of PGA1 (the results of which are shown in FIG. 2B) or 15dPGJ2 (the results of which are shown in FIG. 2C).
# as §3
# Many protein kinase inhibitors compete with binding of ATP, but preincubation in the presence of increasing concentrations of ATP had no effect on inhibition of IKKβ by 15dPGJ2, as indicated in FIG. 6A. […] The pellets were rinsed and kinase activity was measured.
# IKKβ = biological target: T2, IKKβ (Homo sapiens, UniProt O14920); set-up: FLAG; made in house; host or cells: Sf9 (baculovirus); settings: high concentrations; Yin et al.; cited from earlier work
# T2 sequence (O14920 1-756): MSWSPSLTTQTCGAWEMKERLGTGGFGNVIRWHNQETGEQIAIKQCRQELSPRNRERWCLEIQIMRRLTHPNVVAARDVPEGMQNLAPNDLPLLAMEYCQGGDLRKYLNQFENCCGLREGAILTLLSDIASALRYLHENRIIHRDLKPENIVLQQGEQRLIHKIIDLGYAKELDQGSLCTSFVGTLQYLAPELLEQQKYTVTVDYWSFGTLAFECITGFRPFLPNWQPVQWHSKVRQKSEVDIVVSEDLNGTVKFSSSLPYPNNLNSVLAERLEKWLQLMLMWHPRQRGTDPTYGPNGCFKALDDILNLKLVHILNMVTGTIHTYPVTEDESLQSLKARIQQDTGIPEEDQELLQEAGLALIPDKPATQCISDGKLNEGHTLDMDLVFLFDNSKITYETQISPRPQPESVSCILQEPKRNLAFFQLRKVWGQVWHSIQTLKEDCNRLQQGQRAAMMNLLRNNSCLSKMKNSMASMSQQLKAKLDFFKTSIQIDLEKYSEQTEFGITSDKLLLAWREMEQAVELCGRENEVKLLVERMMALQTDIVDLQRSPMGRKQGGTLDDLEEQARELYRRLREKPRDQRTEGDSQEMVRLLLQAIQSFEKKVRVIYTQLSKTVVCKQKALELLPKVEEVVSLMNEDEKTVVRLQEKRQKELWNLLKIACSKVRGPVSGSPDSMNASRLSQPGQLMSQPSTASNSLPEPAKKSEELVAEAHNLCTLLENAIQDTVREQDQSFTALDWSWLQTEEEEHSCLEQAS
# NF-κB = NF-κB activation / DNA-binding activity by EMSA in stimulated HeLa cells; type: cell-based, human; settings: HeLa cells stimulated with TNFα (PGA1: IL-1 or TNFα)
# Description: as §1
# Aliquots of total extracts (15 μg protein) in buffer B were incubated with a ^32P-labeled κB DNA, followed by analysis of DNA-binding activities by EMSA on 4% PAGE gels, as known in the art (See, Rossi et al., supra). Specificity of protein-DNA complexes was verified by supershift with polyclonal antibodies specific for p65 (Rel A).
# T1 sequence (O15111 whole entry, one chain of several): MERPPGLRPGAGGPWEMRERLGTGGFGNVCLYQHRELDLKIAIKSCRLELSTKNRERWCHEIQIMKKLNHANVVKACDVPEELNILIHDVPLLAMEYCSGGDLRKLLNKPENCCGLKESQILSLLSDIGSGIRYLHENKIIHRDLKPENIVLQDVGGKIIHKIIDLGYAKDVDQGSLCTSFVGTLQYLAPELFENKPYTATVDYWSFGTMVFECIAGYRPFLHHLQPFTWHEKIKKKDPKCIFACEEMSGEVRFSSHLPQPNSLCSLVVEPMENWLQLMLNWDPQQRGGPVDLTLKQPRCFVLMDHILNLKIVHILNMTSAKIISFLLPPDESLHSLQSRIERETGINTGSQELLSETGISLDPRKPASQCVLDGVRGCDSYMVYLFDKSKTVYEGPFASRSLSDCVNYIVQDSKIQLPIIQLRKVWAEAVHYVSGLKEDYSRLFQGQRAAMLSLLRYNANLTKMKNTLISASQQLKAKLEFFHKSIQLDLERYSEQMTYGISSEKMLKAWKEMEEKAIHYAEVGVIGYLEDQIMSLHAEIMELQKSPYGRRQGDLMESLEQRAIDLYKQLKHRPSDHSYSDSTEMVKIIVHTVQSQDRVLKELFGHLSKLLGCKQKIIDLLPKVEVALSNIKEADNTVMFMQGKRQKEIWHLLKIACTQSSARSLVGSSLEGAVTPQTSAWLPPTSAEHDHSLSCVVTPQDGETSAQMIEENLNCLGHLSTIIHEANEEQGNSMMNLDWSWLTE
# T1 sequence (Q9Y6K9 whole entry partner, one chain of several): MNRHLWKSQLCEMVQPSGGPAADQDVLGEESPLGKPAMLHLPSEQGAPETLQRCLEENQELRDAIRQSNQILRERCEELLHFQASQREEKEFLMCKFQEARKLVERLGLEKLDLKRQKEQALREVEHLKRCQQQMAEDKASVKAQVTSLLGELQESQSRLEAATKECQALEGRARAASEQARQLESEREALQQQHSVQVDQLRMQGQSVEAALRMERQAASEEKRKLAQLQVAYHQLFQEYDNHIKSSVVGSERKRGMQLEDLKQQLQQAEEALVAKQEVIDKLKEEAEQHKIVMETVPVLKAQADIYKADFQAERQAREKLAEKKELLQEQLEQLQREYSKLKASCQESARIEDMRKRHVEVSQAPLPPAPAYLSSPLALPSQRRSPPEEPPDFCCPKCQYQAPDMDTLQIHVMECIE
smiles,measurement,setting,value
"CCCCC/C=C\C/C=C\C/C=C\C/C=C\CCCC(=O)O [Arachidonic acid, arachidonic acid]","effect on IKK activity in vivo (cells), FIG. 5A",IKK [1],ineffective
same,"effect on IKK activity in vitro, FIG. 5B",IKK [2],ineffective
CCCCC[C@H](O)/C=C/C1=C(C/C=C\CCCC(=O)O)C(=O)CC1 [PGB2],"effect on IKK activity in vivo (cells), FIG. 5A",IKK [1],ineffective
same,"effect on IKK activity in vitro, FIG. 5B",IKK [2],ineffective
CCCCC[C@H](O)/C=C/[C@H]1C(=O)C[C@H](O)[C@@H]1C/C=C\CCCC(=O)O [PGD2],"effect on IKK activity in vivo (cells), FIG. 5A",IKK [1],ineffective
same,"effect on IKK activity in vitro, FIG. 5B",IKK [2],ineffective
CCCCC[C@H](O)/C=C/[C@H]1[C@H](O)CC(=O)[C@@H]1CCCCCCC(=O)O [PGE1],"effect on IKK activity in vivo (cells), FIG. 5A",IKK [1],ineffective
same,"effect on IKK activity in vitro, FIG. 5B",IKK [2],ineffective
CCCCC[C@H](O)/C=C/[C@H]1[C@H](O)CC(=O)[C@@H]1C/C=C\CCCC(=O)O [PGE2],"effect on IKK activity in vivo (cells), FIG. 5A",IKK [1],ineffective
same,"effect on IKK activity in vitro, FIG. 5B",IKK [2],ineffective
CCCCC[C@H](O)/C=C/[C@@H]1[C@@H](CCCCCCC(=O)O)[C@@H](O)C[C@H]1O [PGF1α],"effect on IKK activity in vivo (cells), FIG. 5A",IKK [1],ineffective
same,"effect on IKK activity in vitro, FIG. 5B",IKK [2],ineffective
CC(=O)Oc1ccccc1C(=O)O [aspirin],inhibition of IKKβ,IKKβ,inhibited
CCCCC/C=C\C[C@@H](O)/C=C/C=C/C=C\[C@@H](O)CCCC(=O)O [leukotriene B4],"effect on IKK activity in vivo (cells), FIG. 5A",IKK [1],ineffective
same,"effect on IKK activity in vitro, FIG. 5B",IKK [2],ineffective
CCCCC[C@H](O)/C=C/[C@H]1OC(O)C[C@H](O)[C@@H]1C/C=C\CCCC(=O)O (stereo partly drawn) [thromboxane B2],"effect on IKK activity in vivo (cells), FIG. 5A",IKK [1],ineffective
same,"effect on IKK activity in vitro, FIG. 5B",IKK [2],ineffective
"Cc1c(C)c2c(c(C)c1O)CCC(C)(COc1ccc(CC3SC(=O)NC3=O)cc1)O2 (stereo not drawn) [troglitazone, reference compound]",effect on NF-κB activation,NF-κB,does not inhibit
